Starred links: 1 amine or outer side, 2 acyl side, 3 side chain; linkers in the order of their positions; H or OH if unused. Positions of bridges follow the written chain, without caps; N, C: chain ends. Non-standard residues stand in square brackets, D forms with d. Residues, ends and D or L forms follow the SMILES beside them. *: point of attachment. Bip(4'-NH) = O=C([C@H](Cc1ccc(-c2ccc(N[*:3])cc2)cc1)N[*:1])[*:2]; X45 = CS(=O)(=O)Nc1ccc(CNC(=N)NCCC[C@@H](N[*:1])C(=O)[*:2])cc1; Bip(4'-CONHMe) = CNC(=O)c1ccc(-c2ccc(C[C@H](N)C(=O)O)cc2)cc1; dArg(ω-Bn(3-CH2OH)) = N=C(NCCC[C@@H](N)C(=O)O)NCc1cccc(CO)c1; Indazole3carbonyl(1-CH2COOH) = O=C(O)Cn1nc(C(=O)*)c2ccccc21; X23 = N=C(N)Nc1ccc(CNC(=N)NCCC[C@@H](N[*:1])C(=O)[*:2])cc1; X1 = N=C(NCCC[C@@H](N[*:1])C(=O)[*:2])NCCc1ccc2ccccc2c1; X30 = N#Cc1ccc(CCNC(=N)NCCC[C@@H](N[*:1])C(=O)[*:2])cc1; X8 = N=C(NCCC[C@@H](N[*:1])C(=O)[*:2])NCCc1ccc(CN)cc1; X55 = N=C(NCCC[C@@H](N[*:1])C(=O)[*:2])NCCc1cccnc1; Ala(morpholin-4-yl) = N[C@@H](CN1CCOCC1)C(=O)O; Bip = N[C@@H](Cc1ccc(-c2ccccc2)cc1)C(=O)O; Sar = CNCC(=O)O Where only a bound is given, the exact number is not on record here.

In this assay the target is TNFα (Homo sapiens, UniProt P01375). Description: TNF-Induced HEK-Blue Assay. The class given is cell-based.
Sequence of TNFα (P01375 77-233 limits assumed): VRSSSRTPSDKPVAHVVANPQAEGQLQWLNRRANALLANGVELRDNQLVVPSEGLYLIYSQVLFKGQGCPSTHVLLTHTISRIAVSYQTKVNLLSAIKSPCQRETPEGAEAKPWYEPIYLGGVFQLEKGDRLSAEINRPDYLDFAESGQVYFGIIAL
With `CC(C)C[C@@H]1NC(=O)[C@H](CCCNC(=N)N)NC(=O)[C@H](C(C)C)NC(=O)[C@@H]2CCCN2C(=O)[C@H](C(C)C)NC(=O)[C@@H](CCCNC(=N)NCc2cccc(CO)c2)NC(=O)[C@H](CC(=O)O)NC(=O)[C@@H]2CCCN2C(=O)CN(C)C(=O)[C@H](Cc2ccc(-c3ccc(NC(=O)c4nn(CC(=O)O)c5ccccc45)cc3)cc2)NC(=O)[C@H](Cc2ccc(-c3ccccc3)cc2)NC(=O)[C@H](CN2CCOCC2)NC(=O)CSC[C@@H](C(=O)NCC(N)=O)NC1=O` [Example 425] ({CH2CO}-[Ala(morpholin-4-yl)][Bip][Bip(4'-NH)](Indazole3carbonyl(1-CH2COOH))[Sar]PD[dArg(ω-Bn(3-CH2OH))]VPVRLCG-NH2; thioether N-13), the half-maximal inhibitory concentration (IC50) – broadly, the concentration that gives 50% inhibition – was < 50 nM.

With `CNC(=O)c1ccc(-c2ccc(C[C@@H]3NC(=O)[C@H](CN4CCOCC4)NC(=O)CSC[C@@H](C(=O)NCC(N)=O)NC(=O)[C@H](CC(C)C)NC(=O)[C@H](CCCNC(=N)N)NC(=O)[C@H](C(C)C)NC(=O)[C@@H]4CCCN4C(=O)[C@H](C(C)C)NC(=O)[C@@H](CCCNC(=N)NCc4cccc(CO)c4)NC(=O)[C@H](CC(=O)O)NC(=O)[C@@H]4CCCN4C(=O)CN(C)C(=O)[C@H](Cc4ccc(-c5ccc(NC(=O)c6nn(CC(=O)O)c7ccccc67)cc5)cc4)NC3=O)cc2)cc1` [Example 426] ({CH2CO}-[Ala(morpholin-4-yl)][Bip(4'-CONHMe)][Bip(4'-NH)](Indazole3carbonyl(1-CH2COOH))[Sar]PD[dArg(ω-Bn(3-CH2OH))]VPVRLCG-NH2; thioether N-13), the IC50 is < 50 nM.

The compound `CC(C)C[C@@H]1NC(=O)[C@H](CCCNC(=N)N)NC(=O)[C@H](C(C)C)NC(=O)[C@@H]2CCCN2C(=O)[C@H](C(C)C)NC(=O)[C@@H](CCCNC(=N)NCc2ccc(NS(C)(=O)=O)cc2)NC(=O)[C@H](CC(=O)O)NC(=O)[C@@H]2CCCN2C(=O)CN(C)C(=O)[C@H](Cc2ccc(-c3ccc(NC(=O)c4nn(CC(=O)O)c5ccccc45)cc3)cc2)NC(=O)[C@H](Cc2ccc(-c3ccccc3)cc2)NC(=O)[C@H](CN2CCOCC2)NC(=O)CSC[C@@H](C(=O)NCC(N)=O)NC1=O` [Example 427] ({CH2CO}-[Ala(morpholin-4-yl)][Bip][Bip(4'-NH)](Indazole3carbonyl(1-CH2COOH))[Sar]PD[X45]VPVRLCG-NH2; thioether N-13) yielded an IC50 of 50 to 200 nM.

`CC(C)C[C@@H]1NC(=O)[C@H](CCCNC(=N)N)NC(=O)[C@H](C(C)C)NC(=O)[C@@H]2CCCN2C(=O)[C@H](C(C)C)NC(=O)[C@@H](CCCNC(=N)NCCc2ccc(C#N)cc2)NC(=O)[C@H](CC(=O)O)NC(=O)[C@@H]2CCCN2C(=O)CN(C)C(=O)[C@H](Cc2ccc(-c3ccc(NC(=O)c4nn(CC(=O)O)c5ccccc45)cc3)cc2)NC(=O)[C@H](Cc2ccc(-c3ccccc3)cc2)NC(=O)[C@H](CN2CCOCC2)NC(=O)CSC[C@@H](C(=O)NCC(N)=O)NC1=O` [Example 428] ({CH2CO}-[Ala(morpholin-4-yl)][Bip][Bip(4'-NH)](Indazole3carbonyl(1-CH2COOH))[Sar]PD[X30]VPVRLCG-NH2; thioether N-13) returned an IC50 of 50 to 200 nM.

As for `CC(C)C[C@@H]1NC(=O)[C@H](CCCNC(=N)N)NC(=O)[C@H](C(C)C)NC(=O)[C@@H]2CCCN2C(=O)[C@H](C(C)C)NC(=O)[C@@H](CCCNC(=N)NCCc2ccc(CN)cc2)NC(=O)[C@H](CC(=O)O)NC(=O)[C@@H]2CCCN2C(=O)CN(C)C(=O)[C@H](Cc2ccc(-c3ccc(NC(=O)c4nn(CC(=O)O)c5ccccc45)cc3)cc2)NC(=O)[C@H](Cc2ccc(-c3ccccc3)cc2)NC(=O)[C@H](CN2CCOCC2)NC(=O)CSC[C@@H](C(=O)NCC(N)=O)NC1=O` [Example 429] ({CH2CO}-[Ala(morpholin-4-yl)][Bip][Bip(4'-NH)](Indazole3carbonyl(1-CH2COOH))[Sar]PD[X8]VPVRLCG-NH2; thioether N-13), the IC50 was in the range of 200 to 2000 nM.

For the compound `CNC(=O)c1ccc(-c2ccc(C[C@@H]3NC(=O)[C@H](CN4CCOCC4)NC(=O)CSC[C@@H](C(=O)NCC(N)=O)NC(=O)[C@H](CC(C)C)NC(=O)[C@H](CCCNC(=N)N)NC(=O)[C@H](C(C)C)NC(=O)[C@@H]4CCCN4C(=O)[C@H](C(C)C)NC(=O)[C@@H](CCCNC(=N)NCCc4ccc(C#N)cc4)NC(=O)[C@H](CC(=O)O)NC(=O)[C@@H]4CCCN4C(=O)CN(C)C(=O)[C@H](Cc4ccc(-c5ccc(NC(=O)c6nn(CC(=O)O)c7ccccc67)cc5)cc4)NC3=O)cc2)cc1` [Example 430] ({CH2CO}-[Ala(morpholin-4-yl)][Bip(4'-CONHMe)][Bip(4'-NH)](Indazole3carbonyl(1-CH2COOH))[Sar]PD[X30]VPVRLCG-NH2; thioether N-13), the IC50 was < 50 nM.

With `CNC(=O)c1ccc(-c2ccc(C[C@@H]3NC(=O)[C@H](CN4CCOCC4)NC(=O)CSC[C@@H](C(=O)NCC(N)=O)NC(=O)[C@H](CC(C)C)NC(=O)[C@H](CCCNC(=N)N)NC(=O)[C@H](C(C)C)NC(=O)[C@@H]4CCCN4C(=O)[C@H](C(C)C)NC(=O)[C@@H](CCCNC(=N)NCCc4ccc(CN)cc4)NC(=O)[C@H](CC(=O)O)NC(=O)[C@@H]4CCCN4C(=O)CN(C)C(=O)[C@H](Cc4ccc(-c5ccc(NC(=O)c6nn(CC(=O)O)c7ccccc67)cc5)cc4)NC3=O)cc2)cc1` [Example 431] ({CH2CO}-[Ala(morpholin-4-yl)][Bip(4'-CONHMe)][Bip(4'-NH)](Indazole3carbonyl(1-CH2COOH))[Sar]PD[X8]VPVRLCG-NH2; thioether N-13), the IC50 was in the range of 50 to 200 nM.

Turning to `CC(C)C[C@@H]1NC(=O)[C@H](CCCNC(=N)N)NC(=O)[C@H](C(C)C)NC(=O)[C@@H]2CCCN2C(=O)[C@H](C(C)C)NC(=O)[C@@H](CCCNC(=N)NCc2ccc(NC(=N)N)cc2)NC(=O)[C@H](CC(=O)O)NC(=O)[C@@H]2CCCN2C(=O)CN(C)C(=O)[C@H](Cc2ccc(-c3ccc(NC(=O)c4nn(CC(=O)O)c5ccccc45)cc3)cc2)NC(=O)[C@H](Cc2ccc(-c3ccccc3)cc2)NC(=O)[C@H](CN2CCOCC2)NC(=O)CSC[C@@H](C(=O)NCC(N)=O)NC1=O` [Example 432] ({CH2CO}-[Ala(morpholin-4-yl)][Bip][Bip(4'-NH)](Indazole3carbonyl(1-CH2COOH))[Sar]PD[X23]VPVRLCG-NH2; thioether N-13), the IC50 was in the range of 50 to 200 nM.

Regarding `CC(C)C[C@@H]1NC(=O)[C@H](CCCNC(=N)N)NC(=O)[C@H](C(C)C)NC(=O)[C@@H]2CCCN2C(=O)[C@H](C(C)C)NC(=O)[C@@H](CCCNC(=N)NCCc2ccc3ccccc3c2)NC(=O)[C@H](CC(=O)O)NC(=O)[C@@H]2CCCN2C(=O)CN(C)C(=O)[C@H](Cc2ccc(-c3ccc(NC(=O)c4nn(CC(=O)O)c5ccccc45)cc3)cc2)NC(=O)[C@H](Cc2ccc(-c3ccccc3)cc2)NC(=O)[C@H](CN2CCOCC2)NC(=O)CSC[C@@H](C(=O)NCC(N)=O)NC1=O` [Example 433] ({CH2CO}-[Ala(morpholin-4-yl)][Bip][Bip(4'-NH)](Indazole3carbonyl(1-CH2COOH))[Sar]PD[X1]VPVRLCG-NH2; thioether N-13), the IC50 was in the range of 50 to 200 nM.

As to `CC(C)C[C@@H]1NC(=O)[C@H](CCCNC(=N)N)NC(=O)[C@H](C(C)C)NC(=O)[C@@H]2CCCN2C(=O)[C@H](C(C)C)NC(=O)[C@@H](CCCNC(=N)NCCc2cccnc2)NC(=O)[C@H](CC(=O)O)NC(=O)[C@@H]2CCCN2C(=O)CN(C)C(=O)[C@H](Cc2ccc(-c3ccc(NC(=O)c4nn(CC(=O)O)c5ccccc45)cc3)cc2)NC(=O)[C@H](Cc2ccc(-c3ccccc3)cc2)NC(=O)[C@H](CN2CCOCC2)NC(=O)CSC[C@@H](C(=O)NCC(N)=O)NC1=O` [Example 434] ({CH2CO}-[Ala(morpholin-4-yl)][Bip][Bip(4'-NH)](Indazole3carbonyl(1-CH2COOH))[Sar]PD[X55]VPVRLCG-NH2; thioether N-13), the IC50 lay in the range of 50 to 200 nM.

The values above are taken from patent US20250145665A1, “MACROCYCLIC PEPTIDES USEFUL AS MODULATORS OF TNF ALPHA” (Bristol-Myers Squibb Company, priority 2023, published 2025).
